These are literature values, as cited in patent US20130171093A1, “HEALING POWDER AND METHOD OF USE THEREOF” (priority 2006, published 2013).

Data set [1] relates to full thickness wounds in the backs of pigs. As to conditions: clean, non-infected pig wounds under Opsite.
Data set [2] has as its system acute mediastinitis wounds. As to conditions: 19 patients, wounds packed every 3 to 4 hours.

For the molecule `N=C(NCCCCCCNC(=N)NC(=N)Nc1ccc(Cl)cc1)NC(=N)Nc1ccc(Cl)cc1.O=C(O)[C@H](O)[C@@H](O)[C@H](O)[C@H](O)CO.O=C(O)[C@H](O)[C@@H](O)[C@H](O)[C@H](O)CO` [chlorhexidine gluconate 0.2%, chlorhexidine gluconate], in data set [1], the “wound healing / granulation tissue formation versus wounds covered with Opsite alone” value is listed as “delayed healing”.
Turning to `OC[C@H]1O[C@@](CO)(O[C@H]2O[C@H](CO)[C@@H](O)[C@H](O)[C@H]2O)[C@@H](O)[C@@H]1O` [granular sugar, sucrose], in data set [2], the “debridement of the wound” value is “near complete debridement” and the “eradication of bacterial infection, average time of treatment” value is 7.6 days.
